≈ marks a conversion by molar mass, not a printed value. Like-named read-outs stand apart in the source and are kept apart here.
Tests used:
B. anthracis Sterne [1] = assay: microbe, parasite or virus in culture; format: cell-based, Bacillus anthracis; conditions: for MIC: Bacillus anthracis, read-out: MIC B. anthracis Sterne
B anthracis DHFR = B anthracis DHFR (Bacillus anthracis, UniProt Q81R22); assay: biochemical; conditions: Ki ± SEM B anthracis DHFR
B. anthracis Sterne [2] = conditions: cited from earlier work

Chain of B anthracis DHFR (Q81R22 1-162): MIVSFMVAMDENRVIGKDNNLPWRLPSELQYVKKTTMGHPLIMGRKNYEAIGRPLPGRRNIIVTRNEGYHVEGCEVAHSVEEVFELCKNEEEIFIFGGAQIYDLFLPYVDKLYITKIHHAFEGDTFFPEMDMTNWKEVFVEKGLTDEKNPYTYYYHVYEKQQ

In the case of `CCOc1cc(Cc2cnc(N)nc2N)cc(/C=C/C(=O)N2N=Cc3ccccc3C2C=C(C)C)c1OCC` (racemic) [Compound 19b, (±)-(E)-3-{5-[(2,4-Diamino-5-pyrimidinyl)methyl]-2,3-diethoxyphenyl}-1-(1-isobutenyl-2(1H)-phthalazinyl)-2-propen-1-one], the MIC (B. anthracis Sterne [1]) is reported as 1 to 2 µg/mL (≈ 1.9 to 3.8 µM).
For `CCCC1c2ccccc2C=NN1C(=O)/C=C/c1cc(Cc2cnc(N)nc2N)cc(OC(=O)c2ccccc2)c1OC` (racemic) [Compound 29, (±)-(E)-5-[(2,4-Diamino-5-pyrimidinyl)methyl]-2-methoxy-3-[3-oxo-3-(1-propyl-2(1H)-phthalazinyl)-1-propen-1-yl]phenyl benzoate], the “MIC B. anthracis Sterne” value (B. anthracis Sterne [1]) was 4 to 16 µg/mL and the MIC (B. anthracis Sterne [1]) was 2 to 16 µg/mL (≈ 3.47 to 27.7 µM).
Molecule `CCCC1c2ccccc2C=NN1C(=O)/C=C/c1cc(Cc2cnc(N)nc2N)cc(OCc2ccc(C(F)(F)F)cc2)c1OC` (racemic) [Compound 34, (±)-(E)-3-{5-[(2,4-Diamino-5-pyrimidinyl)methyl]-2-methoxy-3-[(4-(trifluoromethyl)benzyl)oxy]phenyl}-1-(1-propyl-2(1H)-phthalazinyl)-2-propen-1-one] has a Ki (B anthracis DHFR) greater than 2.2 µM.
In the case of `COc1cc(Cc2cnc(N)nc2N)cc(OC)c1OC` [TMP, Trimethoprim], the “MIC B. anthracis Sterne” value (B. anthracis Sterne [2]) is given as greater than 2048 µg/mL.
